The text below walks through data of ChEMBL document CHEMBL4043187, “Synthesis and biological evaluation of N9-cis-cyclobutylpurine derivatives for use as cyclin-dependent kinase (CDK) inhibitors” (Bioorg Med Chem Lett, 2017).

Experiment [1] addresses Cyclin-dependent kinase 5/CDK5 activator 1 (Homo sapiens, UniProt Q00535). Briefly: Inhibition of CDK5/p35 (unknown origin) using ULingt-4E-BP as substrate after 1 hr in presence of ATP by fluorescence assay. The experiment is classed as protein-complex assay.
A further experiment addresses CDK2/Cyclin A2 (Homo sapiens, UniProt P24941). Description: Inhibition of CDK2/CyclinA (unknown origin) using ULingt-4E-BP as substrate after 1 hr in presence of ATP by fluorescence assay. Type of experiment: protein-complex assay.
The target in experiment [2] is Cyclin-dependent kinase 1/cyclin B1 (Homo sapiens, UniProt P06493). Description: Inhibition of human CDK1/CyclinB. The experiment is classed as protein-complex assay.
Sequence of Cyclin-dependent kinase 1/cyclin B1 (P06493 whole entry): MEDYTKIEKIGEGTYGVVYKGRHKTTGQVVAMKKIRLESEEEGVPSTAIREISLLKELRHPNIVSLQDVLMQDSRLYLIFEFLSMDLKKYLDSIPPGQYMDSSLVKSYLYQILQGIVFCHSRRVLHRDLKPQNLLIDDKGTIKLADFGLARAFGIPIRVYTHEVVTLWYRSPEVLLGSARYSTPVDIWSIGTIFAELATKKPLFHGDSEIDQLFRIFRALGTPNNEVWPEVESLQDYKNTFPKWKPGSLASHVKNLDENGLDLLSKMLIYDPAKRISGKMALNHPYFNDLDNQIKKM
Sequence of Cyclin-dependent kinase 1/cyclin B1 (P14635 whole entry, further chain): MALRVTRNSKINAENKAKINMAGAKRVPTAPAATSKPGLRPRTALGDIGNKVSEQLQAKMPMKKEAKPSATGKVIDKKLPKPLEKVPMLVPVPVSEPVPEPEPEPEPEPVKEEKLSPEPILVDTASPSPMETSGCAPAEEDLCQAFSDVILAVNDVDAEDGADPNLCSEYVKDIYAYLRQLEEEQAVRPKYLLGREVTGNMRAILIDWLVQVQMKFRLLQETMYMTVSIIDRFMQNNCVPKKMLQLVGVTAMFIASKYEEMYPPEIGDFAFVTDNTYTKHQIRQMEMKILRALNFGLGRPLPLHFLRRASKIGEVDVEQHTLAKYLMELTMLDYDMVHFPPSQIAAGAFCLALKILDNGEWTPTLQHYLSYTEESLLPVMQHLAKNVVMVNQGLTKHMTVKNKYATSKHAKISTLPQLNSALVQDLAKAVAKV
A further experiment concerns the target CDK6/cyclin D3 (Homo sapiens, UniProt Q00534). Briefly: Inhibition of human CDK6/CyclinD3. The experiment is classed as protein-complex assay.
A further experiment deals with CDK7/Cyclin H/MNAT1 (Homo sapiens, UniProt P50613). Briefly: Inhibition of human CDK7/CyclinH/MAT1. The experiment is classed as protein-complex assay.
Sequence of CDK7/Cyclin H/MNAT1 (P51946 whole entry): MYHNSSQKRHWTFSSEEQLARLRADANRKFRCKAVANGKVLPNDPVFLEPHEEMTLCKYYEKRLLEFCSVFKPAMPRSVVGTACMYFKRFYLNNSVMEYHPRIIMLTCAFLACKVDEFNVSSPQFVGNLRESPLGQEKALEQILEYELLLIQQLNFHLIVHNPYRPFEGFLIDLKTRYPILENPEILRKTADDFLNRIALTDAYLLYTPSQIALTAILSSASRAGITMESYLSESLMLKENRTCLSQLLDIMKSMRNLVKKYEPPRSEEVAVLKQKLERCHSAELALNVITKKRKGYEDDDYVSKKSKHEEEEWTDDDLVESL
Sequence of CDK7/Cyclin H/MNAT1 (P50613 whole entry): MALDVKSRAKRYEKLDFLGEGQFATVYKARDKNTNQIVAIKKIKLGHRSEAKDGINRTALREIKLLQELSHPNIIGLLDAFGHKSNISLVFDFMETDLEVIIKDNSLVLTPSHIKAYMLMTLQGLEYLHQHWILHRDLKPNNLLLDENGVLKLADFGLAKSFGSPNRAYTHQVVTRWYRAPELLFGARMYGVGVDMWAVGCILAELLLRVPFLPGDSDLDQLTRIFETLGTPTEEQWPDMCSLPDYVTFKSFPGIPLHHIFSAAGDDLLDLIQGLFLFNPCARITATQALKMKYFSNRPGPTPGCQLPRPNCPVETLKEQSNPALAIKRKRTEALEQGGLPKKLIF
Sequence of CDK7/Cyclin H/MNAT1 (P51948 whole entry, further chain): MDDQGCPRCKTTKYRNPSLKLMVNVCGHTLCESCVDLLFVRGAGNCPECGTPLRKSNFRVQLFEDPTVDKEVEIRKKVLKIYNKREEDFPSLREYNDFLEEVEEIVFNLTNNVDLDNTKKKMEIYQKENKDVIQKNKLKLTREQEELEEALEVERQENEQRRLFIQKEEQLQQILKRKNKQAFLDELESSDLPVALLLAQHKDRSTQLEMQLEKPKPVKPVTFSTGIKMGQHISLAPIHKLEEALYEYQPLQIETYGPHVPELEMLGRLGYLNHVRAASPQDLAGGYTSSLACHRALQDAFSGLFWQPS
The next experiment concerns MCF7. Briefly: Growth inhibition of human MCF7 cells after 72 hrs by SRB assay. The experiment is classed as functional. Background: Sulforhodamine B stains cellular protein and so reports cell mass.
The next experiment has as its system HCT-116. Briefly: Growth inhibition of human HCT116 cells after 72 hrs by SRB assay. Type of experiment: functional.
The target in a further experiment is CDK9/cyclin T1 (Homo sapiens, UniProt P50750). Briefly: Inhibition of human CDK9/CyclinT1. The experiment is classed as protein-complex assay.
Sequence of CDK9/cyclin T1 (O60563 whole entry): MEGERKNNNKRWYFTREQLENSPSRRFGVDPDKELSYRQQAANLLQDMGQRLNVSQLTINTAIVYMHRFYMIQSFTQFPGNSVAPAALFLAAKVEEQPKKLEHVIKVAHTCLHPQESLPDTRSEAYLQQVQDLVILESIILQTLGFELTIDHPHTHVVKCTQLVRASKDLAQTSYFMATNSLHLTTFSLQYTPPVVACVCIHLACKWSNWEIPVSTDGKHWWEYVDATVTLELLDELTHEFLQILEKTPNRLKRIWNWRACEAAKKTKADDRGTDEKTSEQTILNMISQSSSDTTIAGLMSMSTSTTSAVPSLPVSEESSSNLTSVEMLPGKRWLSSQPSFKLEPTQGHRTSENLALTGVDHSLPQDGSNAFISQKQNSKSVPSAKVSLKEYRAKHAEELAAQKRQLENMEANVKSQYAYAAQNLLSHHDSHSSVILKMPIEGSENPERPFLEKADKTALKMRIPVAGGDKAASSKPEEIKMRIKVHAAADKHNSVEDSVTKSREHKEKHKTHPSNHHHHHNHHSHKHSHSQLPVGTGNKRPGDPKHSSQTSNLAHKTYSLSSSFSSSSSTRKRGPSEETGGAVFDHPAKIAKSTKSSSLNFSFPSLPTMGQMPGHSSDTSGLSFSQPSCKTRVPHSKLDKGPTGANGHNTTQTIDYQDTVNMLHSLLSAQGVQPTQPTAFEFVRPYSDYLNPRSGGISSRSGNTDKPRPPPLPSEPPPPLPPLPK
Sequence of CDK9/cyclin T1 (P50750 whole entry): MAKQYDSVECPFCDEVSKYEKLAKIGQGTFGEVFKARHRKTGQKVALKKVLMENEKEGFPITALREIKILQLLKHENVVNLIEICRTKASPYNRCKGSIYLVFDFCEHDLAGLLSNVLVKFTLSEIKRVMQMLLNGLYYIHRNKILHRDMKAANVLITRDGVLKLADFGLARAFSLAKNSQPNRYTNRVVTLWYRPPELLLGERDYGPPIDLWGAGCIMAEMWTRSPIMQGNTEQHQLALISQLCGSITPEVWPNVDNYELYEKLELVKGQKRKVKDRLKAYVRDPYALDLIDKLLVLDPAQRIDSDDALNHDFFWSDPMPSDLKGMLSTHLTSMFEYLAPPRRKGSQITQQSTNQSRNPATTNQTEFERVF
In the next experiment the target is CDK4/Cyclin D3 (Homo sapiens, UniProt P11802). Briefly: Inhibition of human CDK4/CyclinD3. Type of experiment: protein-complex assay.
Sequence of CDK4/Cyclin D3 (P11802 whole entry): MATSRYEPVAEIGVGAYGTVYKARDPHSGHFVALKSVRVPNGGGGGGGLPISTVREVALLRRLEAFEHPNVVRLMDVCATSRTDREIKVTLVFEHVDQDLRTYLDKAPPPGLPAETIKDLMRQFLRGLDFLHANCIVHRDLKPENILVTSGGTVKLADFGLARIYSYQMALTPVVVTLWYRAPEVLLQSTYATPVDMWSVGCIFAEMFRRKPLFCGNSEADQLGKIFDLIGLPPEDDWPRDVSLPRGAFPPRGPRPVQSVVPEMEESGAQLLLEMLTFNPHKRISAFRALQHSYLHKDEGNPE
Sequence of CDK4/Cyclin D3 (P30281 whole entry, further chain): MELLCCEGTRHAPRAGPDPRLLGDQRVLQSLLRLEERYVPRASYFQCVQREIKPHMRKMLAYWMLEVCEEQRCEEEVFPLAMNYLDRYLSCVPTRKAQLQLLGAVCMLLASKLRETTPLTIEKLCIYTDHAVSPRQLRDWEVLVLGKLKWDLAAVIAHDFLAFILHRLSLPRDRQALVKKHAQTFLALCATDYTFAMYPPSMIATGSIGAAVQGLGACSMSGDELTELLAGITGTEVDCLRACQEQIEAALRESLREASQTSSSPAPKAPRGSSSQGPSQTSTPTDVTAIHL
Experiment [3] concerns the target Cyclin-dependent kinase 5/CDK5 activator 1 (Homo sapiens) (UniProt Q00535+Q15078). Description: Inhibition of CDK5/p35 (unknown origin) using ULingt-4E-BP as substrate at 25 nM after 1 hr in presence of ATP by fluorescence assay relative to control. The experiment is classed as protein-complex assay.
For experiment [4], the target named is CDK2/Cyclin A2 (Homo sapiens) (UniProt P24941+P20248). Briefly: Inhibition of CDK2/CyclinA (unknown origin) using ULingt-4E-BP as substrate at 25 nM after 1 hr in presence of ATP by fluorescence assay relative to control. Type of experiment: protein-complex assay.

Sequence of Cyclin-dependent kinase 5/CDK5 activator 1 (Q00535 whole entry): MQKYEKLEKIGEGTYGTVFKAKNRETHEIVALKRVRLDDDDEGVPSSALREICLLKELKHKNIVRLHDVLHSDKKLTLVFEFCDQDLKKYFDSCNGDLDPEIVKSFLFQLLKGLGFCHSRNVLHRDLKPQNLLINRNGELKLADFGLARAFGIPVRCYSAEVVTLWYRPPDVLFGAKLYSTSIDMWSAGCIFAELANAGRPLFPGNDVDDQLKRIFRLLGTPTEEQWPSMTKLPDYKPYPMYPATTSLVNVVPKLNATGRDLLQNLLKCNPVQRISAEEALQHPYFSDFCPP
Sequence of Cyclin-dependent kinase 5/CDK5 activator 1 (Q15078 whole entry, further chain): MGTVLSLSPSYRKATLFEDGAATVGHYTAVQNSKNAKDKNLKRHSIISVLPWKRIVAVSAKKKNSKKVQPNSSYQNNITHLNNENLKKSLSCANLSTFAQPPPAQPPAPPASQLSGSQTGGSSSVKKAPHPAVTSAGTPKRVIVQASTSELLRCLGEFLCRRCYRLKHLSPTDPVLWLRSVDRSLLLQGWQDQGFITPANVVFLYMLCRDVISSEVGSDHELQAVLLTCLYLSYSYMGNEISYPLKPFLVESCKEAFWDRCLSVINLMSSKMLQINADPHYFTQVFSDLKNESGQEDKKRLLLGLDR
Sequence of Cyclin-dependent kinase 5/CDK5 activator 1 (Homo sapiens) (Q00535 whole entry): as the sequence (Q00535 whole entry) above
Sequence of Cyclin-dependent kinase 5/CDK5 activator 1 (Homo sapiens) (Q15078 99-307 partner limits assumed): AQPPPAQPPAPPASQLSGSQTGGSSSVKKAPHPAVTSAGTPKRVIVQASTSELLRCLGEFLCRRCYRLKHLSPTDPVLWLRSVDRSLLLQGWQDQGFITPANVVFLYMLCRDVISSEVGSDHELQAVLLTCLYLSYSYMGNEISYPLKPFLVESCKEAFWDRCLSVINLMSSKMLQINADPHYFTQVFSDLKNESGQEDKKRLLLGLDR
Sequence of CDK6/cyclin D3 (P30281 whole entry): as the sequence (P30281 whole entry, further chain) above
Sequence of CDK6/cyclin D3 (Q00534 whole entry): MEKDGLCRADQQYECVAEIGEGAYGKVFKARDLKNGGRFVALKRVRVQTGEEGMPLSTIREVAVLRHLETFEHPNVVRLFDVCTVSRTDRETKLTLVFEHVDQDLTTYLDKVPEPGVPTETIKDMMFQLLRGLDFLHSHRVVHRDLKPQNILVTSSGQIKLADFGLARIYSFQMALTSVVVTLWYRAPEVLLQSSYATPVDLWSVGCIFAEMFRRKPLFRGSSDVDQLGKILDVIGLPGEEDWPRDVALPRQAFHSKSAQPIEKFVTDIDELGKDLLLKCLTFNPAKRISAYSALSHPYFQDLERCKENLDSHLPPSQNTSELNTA

As a reminder, the IC50 is the concentration that inhibits the measured activity by half. In the case of `Cc1cccc(C(=O)N[C@H]2C[C@@H](n3cnc4c(NCc5ccc(F)c(F)c5)ncnc43)C2)n1`, the IC50 stood at 13 nM in experiment [1] and 29 nM at CDK2/Cyclin A2.

As for `CC(=O)N[C@H]1CC[C@@H](Nc2ncnc3c2ncn3[C@H]2C[C@@H](NC(=O)c3cccc(C)n3)C2)CC1`, the IC50 amounted to 27 nM in experiment [1] and 112 nM on CDK2/Cyclin A2.

On to `CC(=O)N[C@H]1CC[C@H](Nc2ncnc3c2ncn3[C@H]2C[C@@H](NC(=O)c3cccc(C)n3)C2)CC1`, for which the concentration for half-maximal inhibition (IC50) in experiment [1] was 30 nM; at CDK2/Cyclin A2 it was 160 nM.

Take `Cc1cccc(C(=O)N[C@H]2C[C@@H](n3cnc4c(N[C@H]5CC[C@H](O)CC5)ncnc43)C2)n1`: the half-maximal inhibitory concentration (IC50) in [1] is over 500 nM.

Regarding `Cc1cccc(C(=O)N[C@H]2C[C@@H](n3cnc4c(NC5CCNCC5)ncnc43)C2)n1`, the figures for the 50% inhibitory concentration (IC50) (in experiment [1]; on CDK2/Cyclin A2) were 162 nM and 379 nM, respectively.

In the case of `COc1ccc(Nc2ncnc3c2ncn3[C@H]2C[C@@H](NC(=O)c3cccc(C)n3)C2)cc1OC`, the IC50 came out at 94 nM in experiment [1] and 54 nM at CDK2/Cyclin A2.

For the compound `Cc1cccc(C(=O)N[C@H]2C[C@@H](n3cnc4c(NCc5cccc(Cl)c5)ncnc43)C2)n1`, the 50% inhibitory concentration (IC50) in experiment [1] is 2.3 nM; in experiment [2] it was 23 nM; against CDK6/cyclin D3, over 1000 nM; on CDK7/Cyclin H/MNAT1 it was 319 nM; against CDK9/cyclin T1, 27 nM; at CDK2/Cyclin A2 it was 7.2 nM. On CDK4/Cyclin D3, this compound yielded an IC50 of over 1000 nM. Also, the values for the GI in the experiment with MCF7 and with HCT-116 were 2.49 µM and 2.14 µM, respectively.

Consider `Cc1cccc(C(=O)N[C@H]2C[C@@H](n3cnc4c(Nc5ccncc5)ncnc43)C2)n1`, for which the IC50 (in experiment [1]; on CDK2/Cyclin A2) was over 1000 nM throughout.

As for `Cc1cccc(C(=O)N[C@H]2C[C@@H](n3cnc4c(NCc5cccnc5)ncnc43)C2)n1`, the values for the 50% inhibitory concentration (IC50) (in experiment [1]; on CDK2/Cyclin A2) were 10 nM and 16 nM, respectively.

Regarding `Cc1cccc(C(=O)N[C@H]2C[C@@H](n3cnc4c(NCC5CCNCC5)ncnc43)C2)n1`, the IC50 worked out at 71 nM in experiment [1] and 48 nM on CDK2/Cyclin A2.

Regarding `Cc1cccc(C(=O)N[C@H]2C[C@@H](n3cnc4c(NC5CCN(C(=O)OC(C)(C)C)C5)ncnc43)C2)n1` (stereo partly drawn), the concentration for half-maximal inhibition (IC50) in experiment [1] is over 500 nM.

`CC(=O)N1CCC(Nc2ncnc3c2ncn3[C@H]2C[C@@H](NC(=O)c3cccc(C)n3)C2)CC1`: the IC50 stood at 179 nM in experiment [1] and 474 nM at CDK2/Cyclin A2.

For the compound `Cc1cccc(C(=O)N[C@H]2C[C@@H](n3cnc4c(NCc5ccc(F)cc5)ncnc43)C2)n1`, the half-inhibitory concentration (IC50) stood at 30 nM in experiment [1] and 5.4 nM on CDK2/Cyclin A2.

Regarding `Cc1cccc(C(=O)N[C@H]2C[C@@H](n3cnc4c(NC5CCNC5)ncnc43)C2)n1` (stereo partly drawn), in experiment [1], the IC50 is over 1000 nM.

With `Cc1cccc(C(=O)N[C@H]2C[C@@H](n3cnc4c(NCc5ccc(Cl)c(Cl)c5)ncnc43)C2)n1`, the half-maximal inhibitory concentration (IC50) in [1] came out at 34 nM; on CDK2/Cyclin A2, 77 nM.

As to `COc1cccc(Nc2ncnc3c2ncn3[C@H]2C[C@@H](NC(=O)c3cccc(C)n3)C2)c1`, the half-inhibitory concentration (IC50) in experiment [1] was found to be 67 nM; on CDK2/Cyclin A2, 18 nM.

As for `O=C(N[C@H]1C[C@@H](n2cnc3c(NCc4cccnc4)ncnc32)C1)c1cccc(-c2ccccc2)n1`, the half-inhibitory concentration (IC50) in experiment [1] was 31 nM; on CDK2/Cyclin A2 it was 38 nM.

For `Cc1cccc(C(=O)N[C@H]2C[C@@H](n3cnc4c(NCc5cccc(F)c5)ncnc43)C2)n1`, the IC50 in experiment [1] turned out to be 6 nM; on CDK2/Cyclin A2, 15 nM.

Consider `Cc1cccc(C(=O)N[C@H]2C[C@@H](n3cnc4c(NCC5CCCCC5)ncnc43)C2)n1`, for which the IC50 in [1] is 25 nM; at CDK2/Cyclin A2, 49 nM.

One may read the inhibition as the change of the read-out against control, counted positive when it falls. As for `CN(C)c1cccc(C(=O)N[C@H]2C[C@@H](n3cnc4c(NCc5cccnc5)ncnc43)C2)c1`, the inhibition in experiment [3] and in experiment [4] was under 50% in each case.

As to `O=C(N[C@H]1C[C@@H](n2cnc3c(NCc4cccnc4)ncnc32)C1)c1cccc(C(F)(F)F)n1`, the concentration for half-maximal inhibition (IC50) was 23 nM in experiment [1] and 14 nM on CDK2/Cyclin A2.

Regarding `Cc1cccc(C(=O)N[C@H]2C[C@@H](n3cnc4c(NC5CCN(S(C)(=O)=O)CC5)ncnc43)C2)n1`, the inhibition in experiment [3] was determined as 48%; in [4] it was 62%.

On to `O=C(N[C@H]1C[C@@H](n2cnc3c(NCc4cccnc4)ncnc32)C1)c1cccnc1`, for which the inhibition in experiment [3] and in experiment [4] was under 50% each time.

As to `Cc1cccc(C(=O)N[C@H]2C[C@@H](n3cnc4c(NCc5ccc(Br)cc5)ncnc43)C2)n1`, the figures for the inhibition in experiment [3] and in [4] were 80% and 64%, respectively.

Consider `Cc1cccc(C(=O)N[C@H]2C[C@@H](n3cnc4c(NCc5cccc(Br)c5)ncnc43)C2)n1`, for which the IC50 in experiment [1] was 4.8 nM; in experiment [2] it was 24 nM; against CDK6/cyclin D3, over 1000 nM; against CDK7/Cyclin H/MNAT1, 359 nM; against CDK9/cyclin T1, 19 nM; on CDK2/Cyclin A2 it was 2.1 nM. The compound further gave a half-inhibitory concentration (IC50) against CDK4/Cyclin D3 of 611 nM. The GI in the experiment on MCF7 was 2.43 µM; with HCT-116 it was 2.37 µM.

For `O=C(N[C@H]1C[C@@H](n2cnc3c(NCc4cccnc4)ncnc32)C1)c1c(F)cccc1F`, the inhibition in experiment [3] is 57%; in experiment [4] it was 78%.

Turning to `Cc1cccc(C(=O)N[C@H]2C[C@@H](n3cnc4c(NC5CCN(C(=O)OC(C)(C)C)CC5)ncnc43)C2)n1`, the IC50 in experiment [1] was 66 nM; on CDK2/Cyclin A2, 95 nM.

`O=C(N[C@H]1C[C@@H](n2cnc3c(NCc4cccnc4)ncnc32)C1)c1cccc(Cl)c1Cl`: the inhibition in [3] and in [4] was under 50% each time.

As for `Cc1cccc(C(=O)N[C@H]2C[C@@H](n3cnc4c(NC5CCN(C)CC5)ncnc43)C2)n1`, in experiment [1], the IC50 is over 1000 nM.

Regarding `Cc1cccc(C(=O)N[C@H]2C[C@@H](n3cnc4c(NCc5ccc(N(C)C)cc5)ncnc43)C2)n1`, the results for the inhibition in experiment [3] and in experiment [4] were 53% and under 50%, respectively.

On to `Cc1cccc(C(=O)N[C@H]2C[C@@H](n3cnc4c(NCC5CCN(C(=O)OC(C)(C)C)CC5)ncnc43)C2)n1`, for which the concentration for half-maximal inhibition (IC50) in experiment [1] is 90 nM; on CDK2/Cyclin A2, 376 nM.

Turning to `Cc1cccc(C(=O)N[C@H]2C[C@@H](n3cnc4c(NCc5ccncc5)ncnc43)C2)n1`, the inhibition in [3] and in experiment [4] was under 50% throughout.

Consider `Cc1cccc(C(=O)N[C@H]2C[C@@H](n3cnc4c(Nc5cccc(Cl)c5)ncnc43)C2)n1`, for which the inhibition is 60% in experiment [3] and under 50% in experiment [4].

As to `Cc1cccc(C(=O)N[C@H]2C[C@@H](n3cnc4c(NCc5ccccc5F)ncnc43)C2)n1`, the figures for the inhibition in experiment [3] and in experiment [4] were 55% and under 50%, respectively.
